From US20260184689A1, “PIPERIDINE-SUBSTITUTED BENZOIC ACID COMPOUND, AND PHARMACEUTICAL COMPOSITION AND USE THEREOF” (SHANGHAI YISHENG BIOPHARMACEUTICAL COMPANY LIMITED, priority 2022, published 2026)

Experiments:
[1] = test system: PNH-like erythrocytes; test: Alternative pathway inhibition assay of PNH-like erythrocyte; type: cell-based; details: 1 h, AET/anti-CD55 sensitized human erythrocytes, acidified normal human serum pH 6.4, 37° C. 60 min
Source text: Principle: PNH, as an indication for complement inhibitors, was typically tested using the Ham test, which states that acidified serum was capable of activating the alternative pathway, leading to hemolysis of PNH erythrocytes, while normal erythrocytes remained unaffected. It was reported in the literature that AET could disrupt the complement regulatory proteins on the surface of normal human erythrocytes, resulting in PNH-like erythrocytes.
Reagents and instrument: PBS buffer, normal human serum (NHS), Alsever's solution, microplate reader, MgCl2, EGTA, EDTA, HCl, normal human erythrocytes, AET; anti-CD-55 antibody (BRIC216; Sigma)
PBS buffer: Potassium dihydrogen phosphate (KH2PO4): 0.24 g/L, disodium hydrogen phosphate (Na2HPO4): 1.44 g/L, sodium chloride (NaCl): 8 g/L, potassium chloride (KCl): 0.2 g/L, pH 7.4
PBSE buffer: PBS, 10 mM EDTA; pH 7.4
PBSMg buffer: PBS, 1 mM Mg++; pH 6.4
10× Mg-EGTA stock solution: 25 mM MgCl2, 80 mM EGTA; pH 6.4
10× EDTA stock solution: 100 mM EDTA; pH 6.4
Method: The inhibition of alternative pathway-mediated erythrocyte lysis was evaluated using an in vitro model of PNH. Normal human erythrocytes were sensitized with 2-aminoethylisothiouronium bromide (AET) to inactivate complement regulatory proteins on the cell surface and induce a PNH-like phenotype.
2 mL of normal human erythrocytes were mixed with 2 mL of Alsever's solution, washed three times with PBS, and centrifuged at 2500×g, with the upper 10% of the erythrocytes being removed each time. The washed 1 mL erythrocytes were sensitized by incubation with 4 mL of 8% w/v AET (pH 8.0) at 37° C. for 10 min, followed by three additional washes with PBS. Subsequently, the concentration of erythrocytes in PBS (erythrocyte stock solution) was adjusted with PBS such that an absorbance of 1.5-2.0 at 412 nm (indicating hemoglobin release) was achieved upon dilution of 10 μL erythrocyte stock solution with 190 μL water.
1.5 mL of the erythrocyte stock solution was mixed with anti-CD55 antibody (BRIC216; Sigma/final concentration of 6.7 μg/mL) and incubated on ice for 30 min. After being washed once with PBS, the treated erythrocytes were resuspended in PBS-Mg to the initial volume of 1.5 mL. The following AP-mediated lysis assay was performed on this erythrocyte preparation with induced PNH phenotype.
The normal human serum was acidified with 0.2 M HCl to pH 6.4, and supplemented with MgCl2 and EGTA to final concentrations of 2.5 and 8 mM, respectively. 80 μL of this serum mixture was mixed with 10 μL of PBS-Mg (negative blank) or 10 μL of samples at various concentrations. Normal human serum was acidified with 0.2 M HCl to pH 6.4, supplemented with EDTA to a final concentration of 10 mM, and 80 μL of this serum mixture was mixed with 10 μL of PBS-Mg (negative blank) as a blank positive control. The sample was incubated with serum on ice for 5 min, and then 10 μL of sensitized erythrocytes were added. The final serum concentration in the reaction mixture was approximately 64% v/v, incubated at 37° C. for 60 min, and the reaction was quenched by adding 50 μL of ice-cold PBS containing 10 mM EDTA. The remaining unlysed cells were centrifuged at 2500×g for 10 min, and 100 μL of the supernatant was transferred to a 96-well plate to measure its absorbance at 412 nm. The amount of hemoglobin released during erythrocyte lysis was thereby quantified. […] represented the relative lysis of PNH-like erythrocytes (expressed in %; set to 0% for the PC sample and 100% for the NC sample). The absorbance was measured using a microplate reader (Molecular Devices SpectraMax 3X). The IC50 value was calculated by applying nonlinear regression with GraphPad Prism 9.0 software from the percentage of hemolysis as a function of the test compound concentration.

[2] = Pharmacokinetic activity assay in mice; type: in vivo; details: IV 1 mg/kg, PO 10 mg/kg
Experimental: Experimental objective: The test substance was administered to mice via single-dose intravenous and oral gavage routes, and its plasma concentration was measured to evaluate the pharmacokinetic characteristics in mice.
Experimental animals: C57 mice or other available test mice
IV dose: 1 mg/kg; vehicle: 0.5% DMSO or 0.5% MeOH-5% pharmaceutical grade polyethylene glycol-15 hydroxystearate-PBS
Sample collection: 0.03 mL of blood samples were collected from the saphenous vein in experimental animals by puncture at each time point, and the actual blood collection time was recorded. All blood samples were added to commercially available EDTA-K2 anticoagulant tubes with a specification of 1.5 mL (supplied by Jiangsu Kangjian Medical Apparatus Co., Ltd.). After collection, within half an hour, the blood sample was centrifuged at 4° C., 3000 g for 10 min to aspirate the supernatant plasma, which was put in dry ice immediately, and stored in a refrigerator at −80° C. for LCMS/MS analysis.
Blood sampling points: 5 min, 15 min, 30 min, 1 hour, 2 hours, 4 hours, 6 hours, 8 hours, 12 hours, 20 hours, 24 hours.
Test compounds: positive compound LNP023, the final product of Example 158, the final products (compound 159A and compound 159B) of Example 159, and compound 11 of Example 75.

[3] = test system: LPS-induced complement activation; test: In vivo efficacy assay of LPS-induced complement activation in mice; details: female C57BL/6J mice, LPS 100 μg intraperitoneal, PO
Experimental: Experimental objective: To investigate the inhibitory effect of the compounds of the present disclosure on complement activation in mice induced by LPS stimulation.
Experimental animals: Female C57BL/6J mice, 7 to 9 weeks old, weighing between 17 to 23 g.
Experimental procedure: 100 μg of lipopolysaccharide (LPS) in Salmonella typhimurium (Sigma) dissolved in 100 μL of sterile PBS was intraperitoneally injected to induce complement activation in mice. Negative control animals were intraperitoneally injected 100 μL of sterile PBS and administered alone by tube feeding (PO). Positive control animals were intraperitoneally injected LPS and PO drug vehicles (0.5% (w/v) methyl cellulose and 0.5% (v/v) Tween 80).
Sample collection: 0.3 mL of blood samples were collected from the orbital venous plexus. All blood samples were added to commercially available EDTA-K2 anticoagulant tubes with a specification of 1.5 mL. After collection, within half an hour, the blood sample was centrifuged at 4° C., 3000 g for 10 min to aspirate the supernatant plasma, which was put in dry ice immediately, and stored in a refrigerator at −80° C. for Western blot analysis of downstream C3d protein levels after complement activation.
Sample analysis: Mouse plasma (5 μL)+Lysis buffer (27.5 μL)+Loading buffer (12.5 μL)+Reducing buffer (5 μL) were mixed well and incubated at 100° C. for 15 min with a loading volume of 5 μL/well, i.e., a loading volume of plasma of 0.5 μL per well.
Test compounds: positive compound LNPO23, the final product of Example 158, the final products (compound 159A and compound 159B) of Example 159, and compound 11 of Example 75.

Row | Compound | IC50 [1] [nM] | clearance rate during in vivo metabolism, compared with LNP023 [2] | half-life during in vivo metabolism, compared with LNP023 [2] | inhibition of LPS-induced complement activation (plasma C3d levels), compared with LNP023 [3]
1 | CCCC1CCN(C(=O)c2c(OC)cc(C)c3[nH]ccc23)[C@H](c2ccc(C(=O)O)cc2)C1 (mixture of isomers) [Final product of Example 158, 4-((2S)-1-(5-Methoxy-7-methyl-1H-indole-4-carbonyl)-4-propylpiperidin-2-yl)benzoic acid] | 50 to 250 | comparable or superior | comparable or superior | superior or equivalent
2 | CCCC1CCN(C(=O)c2c(OC)cc(C)c3[nH]ccc23)C(c2ccc(C(=O)O)cc2)C1 (single isomer, unassigned) [Compound 159A] | 50 to 250 | comparable or superior | comparable or superior | superior or equivalent
3 | CCO[C@H]1CCN(Nc2c(OC)cc(C)c3[nH]ccc23)[C@H](c2ccc(C(=O)O)cc2)C1 [Compound 11 of Example 75, 4-((2S,4S)-4-Ethoxy-1-((5-methoxy-7-methyl-1H-indol-4-yl)amino)piperidin-2-yl)benzoic acid] | 100 to 300 | comparable or superior | comparable or superior | superior or equivalent
